Measured values taken from PMC6996304, “Tumor gene therapy by systemic delivery of plasmid DNA with cell‐penetrating peptides” (FASEB bioAdvances, 2018).
“Also recorded” adds a separate entry of the source.

Tests used:
[1] = test system: BALB/c mice bearing subcutaneous Neuro2a tumors; test: Reporter gene delivery in vivo (CPP/pLuc2, luciferase in tissues); design: species or system mouse; settings: for tumor specificity of reporter gene induction (luciferase levels in tissues): one iv dose of CPP/pLuc2 at CR4, plasmid 0.8 mg/kg, PEGylation rate 50%, tissues 24 h after injection
Description: (§1) For in vivo studies, the plasmid dose was 0.8 mg/kg per animal; the pDNA was mixed with the CPP at CR 4 in MQ water, keeping the final complex volume at 100 μL. After 40‐minute incubation, 100 μL of 10% glucose was added to the complexes and injected immediately via tail vein. The luciferase encoding plasmid used in reporter gene experiments in vivo was p‐CMV‐Luc2, marked as pLuc2 in the text, which is optimized for in vivo use.
(§2) If not stated otherwise, the PEGylation rate of peptides in the CPP/pDNA complexes was 50% in all in vivo experiments.
(§3) Mouse Neuro2a and HT1080 tumor xenografts were induced by resuspending 1 × 10^6 cells in 100 μL volume of ice‐cold un‐supplemented DMEM and implanting the cell suspension subcutaneously to the right flank of the mouse (Neuro2a: 4‐ to 6‐week‐old BALB/c; HT1080: Hsd:Athymic Nude‐Foxn1nu female, 4‐6 weeks old, Harlan, UK). The 4T1 orthotopic tumors were induced by injecting 5 × 10^4 cells in 50 μL of ice‐cold un‐supplemented RPMI into the fourth mammary fat pad of 4‐ to 8‐week‐old female BALB/c mice.
Twenty‐four hours after the intravenous administration of CPP/pLuc2 complexes, the mice bearing Neuro2a tumors were sacrificed by cervical dislocation and tissues were harvested and snap‐frozen on dry ice. The tissues were homogenized using Precellys®24‐Dual homogenization system (Bertin Technologies, France) and lyzed with 1 × Promega lysis buffer (Promega). Luminescence was analyzed as described in in vitro transfection methods section.

[2] = test system: Neuro2a cells; test: In vitro transfection of CPP/pGL3 complexes, luciferase activity, with and without MMP-2 treatment; type: cell-based, mouse; settings: CPP/pGL3 complexes CR3 incubated with MMP-2 (3.8 ng/μL) 37 °C 40 min before transfection, 24 h, Figure 1B
Description: CPP/pDNA nanoparticles for cell culture assays were prepared by mixing plasmid DNA (0.5 μg per well of a 24‐well plate) with CPPs, at CPP/pDNA charge ratio 3 (CR3) in MQ water with final volume of 105 μL, followed by a 40‐minute incubation at room temperature. pGL3 Control (Promega, Stockholm, Sweden) was used as the luciferase encoding plasmid since it is best suitable for in vitro use.
Twenty‐four hours before the experiment 3 × 10^4 Neuro2a cells were seeded onto 24‐well plates. Peptide/pDNA complexes at CR3 were prepared as described above. The transfection mixture was added to cells containing full media, and it made up 1/10 of the total cell medium volume during the time of transfection. Lipofectamine™ 2000 (Invitrogen, Carlsbad, CA) was used according to the manufacturer's protocol and added to the cells in serum‐containing medium. After 4‐hour incubation with the complexes, an additional 1 mL of fresh medium was added to the cells and incubated for an additional 20 hours. Thereafter, the media was removed, cells were lyzed with 100 μL 0.1% Triton X‐100 in PBS for 15 minutes at 4°C. Luciferase activity was measured using Promega's luciferase assay (Luciferase Assay System, Promega) according to the manufacturer's protocol on GLOMAX™ 96 microplate luminometer (Promega) and normalized to protein content, which was measured with the BioRad Protein Assay (Hercules, CA) according to the manufacturer's protocol.
To study the effect of MMP‐2 cleavage on transfection efficiency, active recombinant MMP‐2 enzyme (0.1 mg/mL, Calbiochem, Germany) was added to the CPP/pDNA complexes in MQ (final MMP‐2 concentration 3.8 ng/μL), and incubated at 37°C for 40 minutes prior transfection.

[3] = test system: sc HT1080 tumors; test: Tumor growth reduction study, HT1080 fibrosarcoma model; type: in vivo, mouse; settings: nude athymic mice, sc HT1080, CPP/pshVEGF CR4, 0.8 mg/kg every other day, three doses (two iv, third ip), n = 10, compared to pshVEGF alone; Figure 3A
Description: as §1, §2, §3
(§4) Before treatment, the mice were assigned into six groups of 10. CPP/pshVEGF treatment for HT1080 tumor‐bearing animals was started at the first appearance of tumor growth (tumor size of approximately 100 mm^3). […] The tumor sizes were measured with calipers three times a week. […]

[4] = test system: orthotopic 4T1 tumors; test: Tumor growth reduction study, orthotopic 4T1 breast tumor model; type: in vivo, mouse; settings: BALB/c mice, orthotopic 4T1, treatment from 1 day after implantation, CPP/pshVEGF CR4, 0.8 mg/kg every other day, three doses, n = 10; Figure 3B
Description: as §1, §2, §3, §4

[5] = biological target: active human recombinant MMP-2 enzyme (Homo sapiens, UniProt P08253)
active human recombinant MMP-2 enzyme, sequence (P08253 110-660): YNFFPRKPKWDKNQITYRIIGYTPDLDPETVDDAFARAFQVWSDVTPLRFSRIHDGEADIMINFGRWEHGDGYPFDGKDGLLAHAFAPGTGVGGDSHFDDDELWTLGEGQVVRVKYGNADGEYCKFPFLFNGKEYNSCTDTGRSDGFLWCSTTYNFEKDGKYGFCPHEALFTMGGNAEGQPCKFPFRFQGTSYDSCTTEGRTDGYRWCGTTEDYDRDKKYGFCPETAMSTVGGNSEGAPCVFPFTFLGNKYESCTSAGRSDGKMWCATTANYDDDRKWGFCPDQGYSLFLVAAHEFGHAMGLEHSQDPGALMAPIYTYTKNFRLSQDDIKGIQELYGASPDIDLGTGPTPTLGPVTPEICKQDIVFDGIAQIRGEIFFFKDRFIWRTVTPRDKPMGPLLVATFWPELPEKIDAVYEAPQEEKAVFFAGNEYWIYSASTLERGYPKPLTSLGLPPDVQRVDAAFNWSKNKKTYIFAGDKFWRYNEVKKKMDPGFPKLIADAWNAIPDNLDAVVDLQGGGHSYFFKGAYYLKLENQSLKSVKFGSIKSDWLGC
Description: Cleavage assay of MMP-2 cleavable CPPs that contain iRGD. The peptides were incubated with
The mixture was then analyzed with RP-UPLC (C18 reverse phase column, eluted with 20-
80% acetonitrile in water, 0.1% TFA). […] Enzyme digestion
products were confirmed by MALDI-ToF mass spectrometry.
Peptide cleavability by MMP-2
To assess the cleavability of iRGD-modified CPPs by MMP-2, the peptides were incubated
with recombinant MMP-2 (0.1 mg/ml, Calbiochem, Germany) in MQ water for 40 minutes at
37°C and analyzed with UPLC.

[6] = test system: Neuro2a cells; settings: CPP/pLuc2 CR3, 0.1 μg pDNA, 4 h at 37 °C in 50% FBS (MQ for controls), then transfection of Neuro2a cells, luciferase read-out; Figure 2A
Description: The stability of the CPP/pDNA nanoparticles to degradation and dissociation by components found in serum was assessed by reporter gene expression in cells after 4 hours incubation of CPP/pLuc2 complexes with 50% FBS. Complexes were formed as described previously, with 0.1 μg pDNA (CR 3), and incubated at room temperature for 40 minutes. After this, FBS (or MQ for controls) was added to the complexes, and the mixture incubated at 37°C for 4 hours (final FBS concentration 50%). For transfection, 1 × 10^4 Neuro2a cells were seeded to transparent 96‐well plates in supplemented DMEM media 24 hours before experiment. On the day of the experiment, the cells were transfected and luciferase expression analyzed as described in previous section (In vitro transfection).

[7] = test system: tumors; settings: systemic reporter gene plasmid delivery; cited from earlier work
Excerpt: In a previous paper MMP‐activatable CPPs PepFect144 (PF144), PepFect145 (PF145), and PepFect146 (PF146) were designed, where the cell penetration ability of the CPPs was reversibly masked by attaching a PEG molecule to the C‐terminus of the peptides via an MMP‐2/‐9 cleavable linker. […] Although plasmid DNA has been successfully used in combination with small molecule therapeutics,31, 32 achieving a clinical effect by plasmid delivery ...

[8] = Heparin displacement assay (PicoGreen); type: physicochemical; settings: CPP/pLuc2 CR3, 0.1 μg pDNA per well, MQ water, heparin 30 min 37 °C, 100% = naked pDNA, Figure 2B
Description: Accessibility of pDNA in complexes formed between pDNA and CPPs was assessed by Quant‐iT™ PicoGreen® (Thermo Fisher Scientific) assay in mQ water. CPP/pLuc2 nanoparticles at CR3 were prepared as described previously, and transferred to black 96 well plates (0.1 μg of pDNA per well). Heparin solution was added into the wells and incubated at 37°C for 30 minutes. For detection, PicoGreen® was added to the wells, and incubated for 20 minutes. Fluorescence was measured by fluorimeter (λex = 492 nm, λem = 535 nm) (SynergyMx, BioTek).

Substance	tumor specificity of reporter gene induction (luciferase levels in tissues) ([1]; Figure 1C)	transfection efficiency after incubation with MMP-2 enzyme (enzyme-dependent activation) [2]	effect on tumor growth, HT1080 model [3]	effect on tumor growth, 4T1 model [4]	sensitivity of CPP/pDNA nanoparticles to serum treatment (transfection efficiency before and after FBS) [6]	tissue/tumor specificity of plasmid DNA delivery in vivo [7]	other results
Stearyl‐AGYLLGKLLOOLAAAALOOLL‐X‐PLGLAG‐PEG600‐C*RGDKGPDC*‐NH2 (disulfide) [PF144‐iRGD, iRGD‐functionalized PF144]	decreased the tumor specificity; also recorded: reduction in tumor specificity	fully restored to the level of PF14					
Stearyl‐AGYLLGKLLOOLAAAALOOLL‐X‐LALGPG‐PEG1000‐C*RGDKGPDC*‐NH2 (disulfide) [PF148‐iRGD]	unable to induce luciferase expression in any tissue	no enzyme‐dependent activation	no effect on tumor size	no effect on tumor size			cleavability of the MMP-2 sensitive linker by the MMP-2 enzyme [5]: resistant to MMP‐2 degradation
Stearyl‐AGYLLGKLLOOLAAAALOOLL‐X‐PLGLAG‐PEG1000‐NH2 [PF145]					lowest transfection efficiency after serum treatment	successful in mediating tumor‐specific gene delivery	
Stearyl‐AGYLLGKLLOOLAAAALOOLL‐X‐PLGLAG‐PEG1000‐C*RGDKGPDC*‐NH2 (disulfide) [PF145‐iRGD, iRGD‐functionalized PF145]	preserved its tumor specificity; also recorded: minimal luciferase induction in healthy tissues	fully restored to the level of PF14	did not translate into efficient tumor treatment	performs worse than PF144			reporter gene induction at different PEGylation rates ([1]; PF145-iRGD/pLuc2 CR4, 20 µg, PEGylation rates 40%, 50%, 70% (rest PF14), iv, 24 h, N=3 per group, Figure S2): 50% being the most effective of the three
Stearyl‐AGYLLGKLLOOLAAAALOOLL‐X‐PLGLAG‐PEG600‐NH2 [PF144]					highest stability to serum and heparin treatment out of all the PEGylated peptides	efficient tumor specificity; also recorded: successful in mediating tumor‐specific gene delivery	resistance of pDNA in complexes to heparin displacement (relative PicoGreen fluorescence) [8]: significantly more resistant to heparin treatment than other PEGylated CPPs tested
C*RGDKGPDC*‐NH2 (disulfide) [iRGD, tumor‐homing peptide, αvβ3 integrin targeting ligand, reference compound]							luciferase levels in tissues on coadministration of standalone iRGD with CPP/pLuc2 nanoparticles ([1]; iRGD coadministered (molar amount equal to that of PF14) with PF144 or PF145 nanoparticles, iv, CR4, 0.8 mg/kg plasmid, 24 h, Figure 1C): high luciferase levels in spleen; also recorded: high reporter gene expression in the spleen
